Reference: EP4434515A1, “CBD FOR OCULAR USE” (Laboratoire Laredo S.L., priority 2023, dated 2024)
Like-named read-outs stand apart in the source and are kept apart here.

Assays:
[1] = CBD release from micelles through the HA hydrogel into simulated tear fluid, HPLC; format: physicochemical; conditions: after 12 h, simulated tear fluid as receiving medium
Protocol: Next, an assay of CBD release from micelles through the HA hydrogel was carried out for 24 hours (the time that the gel will be in contact with the eye), using STF (simulated tear fluid: NaCl (0.68 g), NaHCO3 (0.22 g), CaCl2·2H2O (0.008 g), KCI (0.14 g), and type II water to a total volume of 100 ml, filtered through a 0.2 µm pore size filter) as the receiving medium in order to recapitulate as much as possible release in tears, and taking samples at 1, 3, 5 8, 12 and 24 h. High-Performance Liquid Chromatography (HPLC) was the analytical technique that allowed the separation, identification (by comparison with standard patterns) and quantification, using a reverse phase and mobile phase under certain conditions; a mixture of methanol and water (85:15). The other conditions are as follows; flow rate of 1.0 ml/min, injection volume 10 µl and wavelength at 220 nm. Under the conditions mentioned above, a good determination of the CBD can be carried out.

[2] = test system: DBA/2J mice; experiment: Intraocular pressure (IOP) by rebound tonometry in glaucoma model mice; format: in vivo
Protocol: The study of the effects of topical ophthalmic CBD administration in micelles was carried out with outbred CD-1 mice and inbred DBA/2J mice. Male JAXTM DBA/2J mice homozygous for null mutations in Tyrplb and GpnmbR150X (-/-) were purchased from Charles River Laboratories (France). CD-1® IGS male mice were obtained from the animal facilities of Universidad Rey Juan Carlos, using 51 mice in total for the study . All animals were 4 weeks-old at the beginning of the study. They were maintained in a temperature (23 ± 1 °C) and humidity (50-55%) controlled room, under a 12 h light/dark cycle (lights off between 19:00 and 07.00 h). Animals had free access to standard laboratory rat chow (Harlan Laboratories Inc.) and tap water. Trained investigators blind to drug treatment conducted all the behavioural assays in groups of two. Experiments were performed between 8:00 and 11:00 a.m. in conscious animals. All animal procedures were designed and conducted in accordance with a protocol approved by the Ethical Committee of Universidad Rey Juan Carlos and by the Autonomous Region of Madrid (PROEX 187.3/21) and followed the guidelines for the Care and Use of Laboratory Animals of the European Union Directive (2010/63/EU) and Spanish regulations (Law 32/2007, RD 53/2013 and order ECC/566/2015). A total of 51 male mice were utilised in this study, as explained in section 2.2 below. The number of animals used and their suffering were minimised
(§1) The research plan designed with the animal model is depicted in Fig. 3. It comprises three main phases: • An ageing phase, which includes an initial 3-month period of quarantine and acclimatisation and an additional 4.5-month period during which IOP (from month 3 until month 7,5), tear production (from month 5,5 until month 7,5) and tactile sensitivity (from month 4 to month 7,5) are monitored to obtain a baseline for such magnitudes. • A treatment phase, beginning when mice were 8 months old, where DBA/2J and CD-1 animals were randomly divided into two groups: treated and untreated. In this phase, treated mice receive CBD doses. The treatment phase comprises 3 periods: an acute period of 1 day, where, at time 0 of the phase, mice receive a CBD dose and are monitored for 24 hours; an initial chronic period of 18 days (days 2 to 19 of the treatment phase), where mice receive a daily CBD dose, and a second chronic period of other […] (days 21 to 37 of the treatment phase), where mice receive 2 daily CBD doses. From the end of the ageing phase to the end of the following phase, the wear-off phase, IOP, tear production and tactile sensitivity are monitored three times per week, following an alternative measuring system: on a same day, IOP was monitored in two groups, while tear production and tactile sensitivity were monitored in the other two groups, while, on the following measuring day, tear production and tactile sensitivity were monitored in the first two groups and IOP was monitored in the other two groups. • A wear-off phase, during which mice receive no treatment and IOP tear production and tactile sensitivity are monitored at 24, 48, 72 and 96 hours after the beginning of the phase, following the same alternative system of the treatment phase.
CBD was administered as part of a micellar solution prepared as described in Example 1. In particular, in each dose, 5 µl of the micellar solution (with 5 mM CBD) was administered to one eye of each mice, while the other eye remained untreated or received only the vehicle, type II water. Treatment was always applied to the right eye. A different group of animals was treated during two weeks with the vehicle to ensure that it had no effect on IOP, corneal mechanical sensitivity or spontaneous production of tear.
Measurements during the chronic treatment phase were always taken prior to daily administration. At each time point indicated in the chart of Fig. 3, rebound tonometry or von Frey test was performed in the same group of animals. […]

[3] = test system: CD-1 mice; experiment: Corneal mechanical sensitivity, von Frey test; format: in vivo; conditions: treated vs untreated
From the text: as §1, with “phase. […]” for “phase.”
(§2) The study was carried out with the same DBA/2J animals used in the study of section 2.3, taking measures of tactile sensitivity in days different from those where IOP was measured, as scheduled in Fig. 3 and Table 3. […]
(§3) Corneal mechanical sensitivity was measured following the von Frey test. […]

[4] = test system: DBA/2J mice; experiment: Corneal mechanical sensitivity, von Frey test; format: in vivo
From the text: as §1, with “phase. […]” for “phase.”
as §2, §3

[5] = test system: CD-1 mice; experiment: Spontaneous production of tear, Schirmer test; format: in vivo; conditions: treated vs untreated
From the text: (§4) The research plan designed with the animal model is depicted in Fig. 3. It comprises three main phases: • An ageing phase, which includes an initial 3-month period of quarantine and acclimatisation and an additional 4.5-month period during which IOP (from month 3 until month 7,5), tear production (from month 5,5 until month 7,5) and tactile sensitivity (from month 4 to month 7,5) are monitored to obtain a baseline for such magnitudes. • A treatment phase, beginning when mice were 8 months old, where DBA/2J and CD-1 animals were randomly divided into two groups: treated and untreated. In this phase, treated mice receive CBD doses. The treatment phase comprises 3 periods: an acute period of 1 day, where, at time 0 of the phase, mice receive a CBD dose and are monitored for 24 hours; an initial chronic period of 18 days (days 2 to 19 of the treatment phase), where mice receive a daily CBD dose, and a second chronic period of other 18 days (days 21 to 37 of the treatment phase), where mice receive 2 daily CBD doses. […]
(§5) Their analysis was carried out following the Von Schirmmer test, which consisted of an ophthalmologic examination used to measure tear production in the eyes by inserting a small special piece of absorbent paper in the corner of the eye to measure the amount of tears produced in a determined period of time. […] Then, the area of the wet test paper was measured (length x width).

[6] = test system: DBA/2J mice; experiment: Spontaneous production of tear, Schirmer test; format: in vivo; conditions: treated vs untreated
From the text: as §4, §5

[7] = Body weight and welfare (actual severity of the procedure); format: in vivo, mice
Protocol: In order to assess the actual severity of the treatment at the end of the procedure, the rates of mortality and morbidity were also recorded. Additionally, body weight measurements were […] during the study, as body weight is considered to be a sign of welfare.
The values obtained are represented in Fig. 11. Additionally, the rate with regard to the value at month 7.8 (where CBD has not been administered yet) was calculated by one-way ANOVA followed by Dunnett's Multiple Comparisons test, a statistical test used to compare multiple treatment groups with a control group. Ia applicable when multiple treatment groups are present and it is desired it determine if any of them are statistically different from the control group, is often used when it is assumed that the variance is equal among all groups The results were over 10% decrease in body weight is normally considered as a severe effect of welfare, and such a level of decrease was not found in the present study for none of the mice.

[8] = topical, cited from earlier work
[9] = test system: wildtype mice; conditions: high dose, soya oil/water emulsion; cited from earlier work
[10] = test system: CB1 knockout mice; conditions: high dose, soya oil/water emulsion; cited from earlier work
[11] = Acute, hour 1 after single dose
[12] = Chronic, day 12, one daily dose
[13] = Chronic, day 16, one daily dose
[14] = Chronic, day 21, two daily doses
[15] = Chronic, day 26, two daily doses
[16] = Chronic, day 30, two daily doses
[17] = Chronic, day 35, two daily doses
[18] = one week after finishing the treatment

## C=C(C)[C@@H]1CCC(C)=C[C@H]1c1c(O)cc(CCCCC)cc1O [CBD, cannabidiol]
[1]
  CBD release: higher than 90%
[2]; [11]
  Δ[contra-(treated)-contra-(non-treated)]: +95%
  Δ[ipsi-(treated)-ipsi-(non-treated)]: +69%
[2]; Acute, hour 1 after single dose, treated ipsilateral eye, t0 = month 3.0
  IOP ratio tn/t0, ipsi- (treated): 180%
[2]; Acute, hour 1 after single dose, untreated contralateral eye, t0 = month 3.0
  IOP ratio tn/t0, contra- (treated): 192%
[2]; Chronic, day 3, one daily dose
  Δ[contra-(treated)-contra-(non-treated)]: +80%
  Δ[ipsi-(treated)-ipsi-(non-treated)]: +35%
[2]; Chronic, day 3, one daily dose, contralateral eye
  IOP ratio tn/t0, contra- (treated): 131%
[2]; Chronic, day 3, one daily dose, ipsilateral eye
  IOP ratio tn/t0, ipsi- (treated): 130%
[2]; Chronic, day 7, one daily dose
  Δ[contra-(treated)-contra-(non-treated)]: +49%
  Δ[ipsi-(treated)-ipsi-(non-treated)]: -35%
[2]; Chronic, day 7, one daily dose, contralateral eye
  IOP ratio tn/t0, contra- (treated): 119%
[2]; Chronic, day 7, one daily dose, ipsilateral eye
  IOP ratio tn/t0, ipsi- (treated): 101%
[2]; [12]
  Δ[contra-(treated)-contra-(non-treated)]: +30%
  Δ[ipsi-(treated)-ipsi-(non-treated)]: -89%
[2]; Chronic, day 12, one daily dose, contralateral eye
  IOP ratio tn/t0, contra- (treated): 128%
[2]; Chronic, day 12, one daily dose, ipsilateral eye
  IOP ratio tn/t0, ipsi- (treated): 104%
[2]; [13]
  Δ[contra-(treated)-contra-(non-treated)]: -85%
  Δ[ipsi-(treated)-ipsi-(non-treated)]: -174%
[2]; Chronic, day 16, one daily dose, contralateral eye
  IOP ratio tn/t0, contra- (treated): 117%
[2]; Chronic, day 16, one daily dose, ipsilateral eye
  IOP ratio tn/t0, ipsi- (treated): 77%
[2]; [14]
  Δ[contra-(treated)-contra-(non-treated)]: -60%
  Δ[ipsi-(treated)-ipsi-(non-treated)]: -81%
[2]; Chronic, day 21, two daily doses, contralateral eye
  IOP ratio tn/t0, contra- (treated): 100%
[2]; Chronic, day 21, two daily doses, ipsilateral eye
  IOP ratio tn/t0, ipsi- (treated): 90%
[2]; [15]
  Δ[contra-(treated)-contra-(non-treated)]: -137%
  Δ[ipsi-(treated)-ipsi-(non-treated)]: -79%
[2]; Chronic, day 26, two daily doses, contralateral eye
  IOP ratio tn/t0, contra- (treated): 97%
[2]; Chronic, day 26, two daily doses, ipsilateral eye
  IOP ratio tn/t0, ipsi- (treated): 95%
[2]; [16]
  Δ[contra-(treated)-contra-(non-treated)]: -119%
  Δ[ipsi-(treated)-ipsi-(non-treated)]: -159%
[2]; Chronic, day 30, two daily doses, contralateral eye
  IOP ratio tn/t0, contra- (treated): 113%
[2]; Chronic, day 30, two daily doses, ipsilateral eye
  IOP ratio tn/t0, ipsi- (treated): 68%
[2]; [17]
  Δ[contra-(treated)-contra-(non-treated)]: -88%
  Δ[ipsi-(treated)-ipsi-(non-treated)]: -82%
[2]; Chronic, day 35, two daily doses, contralateral eye
  IOP ratio tn/t0, contra- (treated): 96%
[2]; Chronic, day 35, two daily doses, ipsilateral eye
  IOP ratio tn/t0, ipsi- (treated): 81%
[2]; Wear-off, day 38, no treatment
  Δ[contra-(treated)-contra-(non-treated)]: -44%
  Δ[ipsi-(treated)-ipsi-(non-treated)]: -78%
[2]; Wear-off, day 38, no treatment, contralateral eye
  IOP ratio tn/t0, contra- (treated): 64%
[2]; Wear-off, day 38, no treatment, ipsilateral eye
  IOP ratio tn/t0, ipsi- (treated): 81%
[2]; Wear-off, day 40, no treatment
  Δ[contra-(treated)-contra-(non-treated)]: -34%
  Δ[ipsi-(treated)-ipsi-(non-treated)]: -70%
[2]; Wear-off, day 40, no treatment, contralateral eye
  IOP ratio tn/t0, contra- (treated): 171%
[2]; Wear-off, day 40, no treatment, ipsilateral eye
  IOP ratio tn/t0, ipsi- (treated): 165%
[2]; acute administration (one dose)
  IOP relative to the untreated group: increased IOP
[2]; after giving two doses (daily)
  IOP difference relative to the untreated group: -80%
[2]; [18]
  IOP compared with the untreated group: still reduced
[2]; repeated administration, 7 days on
  IOP relative to the untreated group, late phase: decreased values
[3]
  corneal mechanical sensitivity: no significant effect
[4]; acute administration
  corneal mechanical sensitivity relative to the untreated group: decreased mechanical sensitivity
[4]; [18]
  corneal mechanical sensitivity: still reduced
[5]
  spontaneous production of tear: no significant effect
[6]
  spontaneous production of tear: no significant effect
[7]; ocular topical administration
  welfare: no severe affection of welfare
[7]; phase of repeated CBD administration, DBA/2J and CD-1 mice, larger in CD-1
  body weight decrease with regard to the weight before beginning the treatment: lower than 10%
[8]; delivered in mineral oil
  effect on IOP: IOP-lowering effect
[8]; delivered in sesame oil
  effect on IOP: absent
[9]
  effect on IOP: increases IOP
[10]
  effect on IOP: decreases IOP
